Assays:
[1] = test system: proinflammatory cytokines IL-1a, IL-6, IL-8, TNF-a in 3D EpiDerm skin models; experiment: Multiple inflammation biomarker assay on SDS-irritated 3D EpiDerm skin models; conditions: for cytokine levels (IL-1a, IL-6, IL-8, TNF-a; FIGS. 2A-2D, % control): 0.02 wt. % SDS-irritated skin samples, 30 ul of 1% test solution in PBS topically for 1 hour, then 24 hours incubation, Milliplex assay
Procedure: To document the effect on skin inflammation, in vitro experiments using 3D EpiDerm skin models (SIT 200 skin irritation model, MatTek Corporation, Ashland, Mass.) were conducted. An irritant chemical, sodium dodecyl sulfate (0.02 wt. % SDS), was used to induce skin irritation in in vitro skin samples. After the inducement of skin irritation, the in vitro skin samples were each treated topically with one of two 30 ul test solutions (either a 1% Taurine in PBS solution or a 1% Sodium methyl oleoyl taurate in PBS solution) for 1 hour in a tissue culture incubator (37 degree C., 5% CO2). Following the incubation, the skin samples were washed with PBS and placed in a culture medium and further incubated for 24 hours. Tissue was harvested and homogenized for a multiple inflammation biomarker assay, testing levels of IL-1, IL-6, IL-8 and TNF-a. Biomarkers were analyzed by a Milliplex assay kit. (Millipore, Billerica, Mass.).
The irritant chemical, sodium dodecyl sulfate (SDS), that was used is commonly used as a […] control in irritation/inflammation assays on MatTek tissue. The multiple biomarker assay of Example 2 measured the levels of proinflammatory cytokines, including IL-1a, IL-6, IL-8, TNF-a, in one assay to evaluate the level of skin irritation/inflammation. The more cytokines released, the greater the irritation and/or inflammation potential.

HaCaT cells = experiment: Cell migration assay (scratch gap closure); format: cell-based, human; conditions: 0.01% by weight in DMEM culture medium, 24 hours, vs control medium
Procedure: Three different culture medium samples were prepared. A control medium that included a Dulbecco's modified Eagle's medium (DMEM) comprising actives of 10% Fetal Bovine Serum and 1% Penicillin Streptomycin; a taurine medium that was the same as the control medium but included 0.01% by weight Taurine; and a taurate medium that was the same as the control medium but included 0.01% by weight Sodium Methyl Oleoyl Taurate. To determine the effect of both Taurine (0.01%) and Sodium Methyl Oleoyl Taurate (0.01%) on the cellular repair function, in vitro experiments were conducted using HaCaT cells. HaCaT cells are a spontaneously transformed aneuploid immortal keratinocyte cell line from adult human skin. Three sample wells of the HaCaT cells were each grown until 100% confluent. After that, each well was scratched with a 1000 microliter (ul) tip (to create the gap) and washed twice with 1 milliliter (ml) of phosphate buffered saline (“PBS”) to eliminate dead floating cells. Following that, each one of the three sample wells were treated with 1 ml of one of the three culture medium samples: one with the control medium, one with the taurine (0.01%) medium, and one with the sodium methyl oleoyl taurate (0.01%) medium. Then, initial measurements of gap distance were taken using a microscope (OLYMPUS IX71). […]

[2] = test system: IL-1a in 3D EpiDerm skin models; experiment: Irritation biomarker (IL-1a) assay on 3D EpiDerm skin models; format: cell-based, human; conditions: 6.8% in combar base, p-value of 0.03 vs combar base
Excerpt: Two separate combar samples were formulated, one with taurine and one with sodium methyl oleoyl taurate. Both the taurine and sodium methyl oleoyl taurate were formulated at the same molar concentration in the combar samples. The weight concentrations of taurine and methyl oleoyl taurate in their respective combar bases was as follows:
Taurine combar sample—2% Taurine (obtained from Qianjiang Yongan Pharmaceutical, Wuhan, China), 98% Combar;
Taurate combar sample—6.8% Sodium Methyl Oleoyl Taurate (obtained from Rhodia Solvay Group), 93.2% Combar.
Samples for testing were made by mixing the taurine combar and taurate combar in PBS (1% weight by volume combar base of each of the taurine combar and sodium methyl oleoyl taurate combar in PBS).
Separate In vitro skin samples were treated topically with 30 ul each of the taurine combar and taurate combar test samples for 1 hour in a tissue culture incubator. […] Tissue was harvested and homogenized for a IL-1a assay. IL-1a levels were analyzed using a Human IL-1 alpha/IL-1F1 Quantikine ELISA kit available from R&D Systems, Minneapolis, Minn. Among cytokines released along the inflammation pathway, IL-1a is recognized as a prominent irritation biomarker. The more IL-1a that is released, the greater is the irritation potential.
Thus, the combar base was used as a negative control on the MatTek tissue.

CCCCCCCCCCCCOS(=O)(=O)[O-].[Na+] [SDS, Sodium Dodecyl Sulfate]
expression of cytokines IL-1a, IL-6, IL-8 and TNF-a by the irritant ([1]; 0.02 wt. % SDS on 3D EpiDerm): induced

CCCCCCCC/C=C\CCCCCCCC(=O)N(C)CCS(=O)(=O)[O-].[Na+] [sodium methyl oleoyl taurate]
cell migration rate (% reduction in gap distance, FIG. 1) (HaCaT cells): comparable enhancement in cell migration rate | cytokine levels (IL-1a, IL-6, IL-8, TNF-a; FIGS. 2A-2D, % control) [1]: suppressed | irritation potential of the combar base [2]: significantly reduced

NCCS(=O)(=O)O [taurine, 2-aminoethylsulphonic acid]
cell migration rate (% reduction in gap distance, FIG. 1) (HaCaT cells): comparable enhancement in cell migration rate | cytokine levels (IL-1a, IL-6, IL-8, TNF-a; FIGS. 2A-2D, % control) [1]: suppressed

Source: patent publication US11220661B2, “Compositions comprising taurate surfactants and methods of using the compositions” (Colgate-Palmolive Company, priority 2016, dated 2022)
